One assay has as its system THP-1. Briefly: THP-1 IC50 assay. Type of assay: cell-based. The following applies: Homo sapiens; THP-1 cells.
In assay [1] the test system is IL-1β release upon NLRP3 activation in peripheral blood mononuclear cells (PBMC). Briefly: PBMC IC50 Determination Assay. Type of assay: cell-based. The following applies: Homo sapiens; inhibition of IL-1β release; LPS-primed PBMC stimulated with ATP or nigericin. The method, then: The compounds of the present disclosure were tested for their inhibitory activity against IL-1β release upon NLRP3 activation in peripheral blood mononuclear cells (PBMC).
Protocol A. PBMC were isolated from buffy coats by density gradient centrifugation on Histopaque-1077 (Sigma, cat no. 10771). Isolated cells were seeded into the wells of a 96-well plate and incubated for 3 h with lipopolysaccharide (LPS). Following medium exchange, the compounds of the present disclosure were added (a single compound per well) and the cells were incubated for 30 min. Next, the cells were stimulated either with ATP (5 mM) or nigericin (10 μM) for 1 h and the cell culture media from the wells were collected for further analysis.
The release of IL-1β into the media was determined by a quantitative detection of IL-1β in the media using an IL-1β enzyme-linked immunosorbent assay (ELISA) Ready-SET-Go!, eBioscience cat. No. 88-7261-88. Briefly, in a first step, high affinity binding plates (Corning, Costar 9018 or NUNC Maxisorp Cat No. 44-2404) were coated overnight at 4° C. with specific capture antibody included in the kit (anti-human IL-1β ref. 14-7018-68). Subsequently, plates were blocked with blocking buffer for 1 h at room temperature (rt) and after washing with a buffer (PBS with 0.05% Tween-20) incubated with protein standard and culture media. After 2 h of incubation at rt, plates were washed and incubated with biotinylated detection antibody included in the kit (anti-human IL-1β Biotin ref. 33-7110-68) for 1 h at rt. Plates were washed and incubated with HRP-streptavidin for 30 min at rt and washed again. The signal was developed after addition of 3,3′,5,5′-tetramethylbenzidine-peroxidase (TMB) until colour appeared and the reaction was stopped by 2 M H2SO4. A microplate spectrophotometer (BioTek) was used to detect signals with 450 nm. The detection range of IL-1β ELISA was […].
Protocol B. PBMC were isolated from buffy coats by density gradient centrifugation on Histopaque-1077 (Sigma, cat no. 10771). Isolated cells were seeded into the wells (280,000 cells/well) of a 96-well plate and incubated for 3 h with lipopolysaccharide (LPS, 1 μg/mL diluted 1000× from a 1 mg/mL stock solution). The compounds of the present disclosure were added (a single compound per well) and the cells were incubated for 30 min. Next, the cells were stimulated with ATP (5 mM final concentration diluted 20× from a 100 mM stock solution) for 1 h and the cell culture media from the wells were collected for further analysis.
The release of IL-1β into the media was determined by quantitative detection of IL-1β in the media using HTRF®, CisBio cat. No. 62HIL1BPEH. Briefly, cell culture supernatant were dispensed directly into the assay plate containing antibodies labelled with the HTRF® donor and acceptor. A microplate spectrophotometer (BMG) was used to detect signals at 655 nm and 620 nm. The detection range of IL-1β HTRF® was 39-6500 μg/mL.

Counter-ions that a name gives are not always drawn.

Consider `Cc1cc(Cl)cc(O)c1-c1ccc(CN(C)[C@@H]2CCOC2)nn1` [Compound 58, (R)-5-Chloro-3-methyl-2-(6-((methyl(tetrahydrofuran-3-yl)amino)methyl)pyridazin-3-yl)phenol], for which the IC50 (with THP-1; in assay [1]) was 1000 to 3000 nM in each case.
As for `Oc1cc(C(F)(F)F)cc(C(F)(F)F)c1-c1ccc(CNC2CCOCC2)nn1` [Compound 85, 2-(6-{[(Oxan-4-yl)amino]methyl}pyridazin-3-yl)-3,5-bis(trifluoromethyl)phenol], the IC50 (in the assay on THP-1; in assay [1]) was 1000 to 3000 nM throughout.
As to `Cc1cc(C(F)(F)F)cc(O)c1-c1ccc(CNCc2ccn(C)n2)nn1` [Compound 127], the values for the IC50 (with THP-1; in assay [1]) were 1000 to 3000 nM and 500 to 1000 nM, respectively.
Turning to `Cc1cc(C(F)(F)F)cc(O)c1-c1ccc(CN)nn1` [Compound 20, 2-[6-(aminomethyl)pyridazin-3-yl]-3-methyl-5-(trifluoromethyl)phenol], the IC50 with THP-1 was 3000 to 10000 nM; in assay [1] it was 1000 to 3000 nM.
Take `Cc1cc(C(F)(F)F)cc(O)c1-c1ccc(CN2CCOC2=O)nn1` [Compound 44, 3-((6-(2-Hydroxy-6-methyl-4-(trifluoromethyl)phenyl)pyridazin-3-yl)methyl)oxazolidin-2-one]: the IC50 in the assay with THP-1 is 500 to 1000 nM; in assay [1] it was below 500 nM.
Regarding `Cc1cc(C(F)(F)F)cc(O)c1-c1ccc(CNC2CCC(=O)N(C)C2)nn1` (centres unmarked) [Compound 111], the IC50 (in the assay on THP-1; in assay [1]) was below 500 nM each time.
Regarding `Cc1cc(C(F)(F)F)cc(O)c1-c1ccc(CN2CCN(C)C(=O)C2)nn1` [Compound 132], the IC50 (with THP-1; in assay [1]) was 1000 to 3000 nM in each case.
`Cc1cc(C(F)(F)F)cc(O)c1-c1ccc(CNC2CCN(C)C2)nn1` (centres unmarked) [Compound 71, 3-Methyl-2-(6-(((1-methylpyrrolidin-3-yl)amino)methyl)pyridazin-3-yl)-5-(trifluoromethyl)phenol dihydrochloride]: the results for the IC50 (in the assay on THP-1; in assay [1]) were 1000 to 3000 nM and 500 to 1000 nM, respectively.
In the case of `Cc1cc(Cl)cc(O)c1-c1ccc(CN[C@H]2CCC(=O)N(C)C2)nn1` [Compound 87, (5S)-5-({[6-(4-Chloro-2-hydroxy-6-methylphenyl)pyridazin-3-yl]methyl}amino)-1-methylpiperidin-2-one], the IC50 (with THP-1; in assay [1]) was below 500 nM each time.
As for `Cc1cc(C(F)(F)F)cc(O)c1-c1ccc(CNc2ccncn2)nn1` [Compound 75, 3-Methyl-2-(6-((pyrimidin-4-ylamino)methyl)pyridazin-3-yl)-5-(trifluoromethyl)phenol hydrochloride], the half-inhibitory concentration (IC50) with THP-1 was below 500 nM; in assay [1], 500 to 1000 nM.
As for `Cc1cc(OC(F)F)cc(O)c1-c1ccc(CNC2CCOCC2)nn1` [Compound 70, 5-(Difluoromethoxy)-3-methyl-2-(6-(((tetrahydro-2H-pyran-4-yl)amino)methyl)pyridazin-3-yl)phenol], the IC50 (with THP-1; in assay [1]) was 1000 to 3000 nM throughout.
Turning to `Cc1cc(C(F)(F)F)cc(O)c1-c1ccc(CNc2cccnc2)nn1` [Compound 79, 3-Methyl-2-(6-{[(pyridin-3-yl)amino]methyl}pyridazin-3-yl)-5-(trifluoromethyl)phenol], the IC50 (in the assay on THP-1; in assay [1]) was 500 to 1000 nM in each case.
As to `Cc1cc(C(F)(F)F)cc(O)c1-c1ccc(CNC2CCCC2)nn1` [Compound 101], the results for the 50% inhibitory concentration (IC50) (in the assay with THP-1; in assay [1]) were 500 to 1000 nM and below 500 nM, respectively.
On to `Cc1cc(C(F)(F)F)cc(O)c1-c1ccc(CN[C@H]2CC(=O)N(C)C2)nn1` [Compound 49, (S)-4-(((6-(2-Hydroxy-6-methyl-4-(trifluoromethyl)phenyl)pyridazin-3-yl)methyl)amino)-1-methylpyrrolidin-2-one], for which the IC50 (with THP-1; in assay [1]) was below 500 nM each time.
`Cc1cc(C(F)(F)F)cc(O)c1-c1ccc(CNCC2CCOCC2)nn1` [Compound 109]: the IC50 (in the assay on THP-1; in assay [1]) was 3000 to 10000 nM in each case.
Turning to `Cc1cc(C(F)(F)F)cc(O)c1-c1ccc(CNc2cncnc2)nn1` [Compound 26], the results for the IC50 (in the assay on THP-1; in assay [1]) were 1000 to 3000 nM and 500 to 1000 nM, respectively.
Consider `Cc1cc(C(F)(F)F)cc(O)c1-c1ccc(Cn2ccc(=N)cc2)nn1` [Compound 25], for which the IC50 (in the assay on THP-1; in assay [1]) was 3000 to 10000 nM each time.
As to `Cc1cc(C(F)(F)F)cc(O)c1-c1ccc(CNC2CCS(=O)(=O)CC2)nn1` [Compound 137], the IC50 (in the assay on THP-1; in assay [1]) was 1000 to 3000 nM each time.
Take `Cc1cc(C(F)(F)F)cc(O)c1-c1ccc(Cn2ccc(=N)cn2)nn1` [Compound 121]: the IC50 in the assay on THP-1 is 3000 to 10000 nM; in assay [1], at least 10000 nM.
Consider `Cc1cc(C(F)(F)F)cc(O)c1-c1ccc(CN2CC[C@@H](F)C2)nn1` [Compound 34, (R)-2-(6-((3-Fluoropyrrolidin-1-yl)methyl)pyridazin-3-yl)-3-methyl-5-(trifluoromethyl)phenol], for which the IC50 (in the assay with THP-1; in assay [1]) was 1000 to 3000 nM in each case.
On to `Cc1cc(Cl)cc(O)c1-c1ccc(CNC2CCOCC2)nn1` [Compound 12, 5-Chloro-3-methyl-2-(6-(((tetrahydro-2H-pyran-4-yl)amino)methyl)pyridazin-3-yl)phenol], for which the half-maximal inhibitory concentration (IC50) (in the assay with THP-1; in assay [1]) was below 500 nM throughout.
As for `Cc1cc(C(F)(F)F)cc(O)c1-c1ccc(C2(N3CCCC3=O)CC2)nn1` [Compound 86, 1-(1-{6-[2-Hydroxy-6-methyl-4-(trifluoromethyl)phenyl]pyridazin-3-yl}cyclopropyl)pyrrolidin-2-one], the IC50 (with THP-1; in assay [1]) was 500 to 1000 nM each time.
As for `Cc1cc(C(F)(F)F)cc(O)c1-c1ccc(CNC2COC2)nn1` [Compound 21], the IC50 (in the assay on THP-1; in assay [1]) was 500 to 1000 nM each time.
With `Cc1cc(Cl)cc(O)c1-c1ccc(CN(C)[C@H]2CCOC2)nn1` [Compound 59, (S)-5-Chloro-3-methyl-2-(6-((methyl(tetrahydrofuran-3-yl)amino)methyl)pyridazin-3-yl)phenol], the IC50 in the assay with THP-1 fell in the range of 500 to 1000 nM; in assay [1] it was 1000 to 3000 nM.
For `Oc1cc(C(F)(F)F)cc(Cl)c1-c1ccc(CNC2CCOCC2)nn1` [Compound 14, 3-Chloro-2-(6-(((tetrahydro-2H-pyran-4-yl)amino)methyl)pyridazin-3-yl)-5-(trifluoromethyl)phenol] the same measures were 1000 to 3000 nM and 1000 to 3000 nM.
For `Cc1cc(C(F)(F)F)cc(O)c1-c1ccc(CNC2CCOC2)nn1` (centres unmarked) [Compound 103] the same measures were below 500 nM and below 500 nM.
Turning to `Cc1cc(C(F)(F)F)cc(O)c1-c1ccc(CNc2ccn(C)n2)nn1` [Compound 122], the IC50 in the assay on THP-1 is 500 to 1000 nM; in assay [1], below 500 nM.
Regarding `Cc1cc(C(F)(F)F)cc(O)c1-c1ccc(CNCc2cnccn2)nn1` [Compound 92, 3-Methyl-2-(6-(((pyrazin-2-ylmethyl)amino)methyl)pyridazin-3-yl)-5-(trifluoromethyl)phenol], the IC50 lay within 3000 to 10000 nM with THP-1 and 1000 to 3000 nM in assay [1].
For the compound `Cc1cc(C(F)(F)F)cc(O)c1-c1ccc(Cn2ccccc2=N)nn1` [Compound 119], the IC50 (in the assay with THP-1; in assay [1]) was 500 to 1000 nM throughout.
For `Cc1cc(C(F)(F)F)cc(O)c1-c1ccc(Cn2ccc(=N)nc2)nn1` [Compound 120], the values for the IC50 (in the assay on THP-1; in assay [1]) were 3000 to 10000 nM and at least 10000 nM, respectively.
Consider `Cc1cc(C(F)(F)F)cc(O)c1-c1ccc(C(C)(C)N2CCCC2=O)nn1` [Compound 81, 1-(2-{6-[2-Hydroxy-6-methyl-4-(trifluoromethyl)phenyl]pyridazin-3-yl}propan-2-yl)pyrrolidin-2-one], for which the IC50 (in the assay on THP-1; in assay [1]) was 1000 to 3000 nM in each case.
On to `Cc1cc(C(F)(F)F)cc(O)c1-c1ccc(CNCC(F)F)nn1` [Compound 96], for which the IC50 with THP-1 was 500 to 1000 nM; in assay [1] it was below 500 nM.
With `Cc1cn(Cc2ccc(-c3c(C)cc(C(F)(F)F)cc3O)nn2)c(=N)s1` [Compound 125], the IC50 (in the assay on THP-1; in assay [1]) was 1000 to 3000 nM each time.
Take `CO[C@@H]1CCN(Cc2ccc(-c3c(C)cc(Cl)cc3O)nn2)C1` [Compound 60, (R)-5-Chloro-2-(6-((3-methoxypyrrolidin-1-yl)methyl)pyridazin-3-yl)-3-methylphenol]: the IC50 (in the assay on THP-1; in assay [1]) was 1000 to 3000 nM throughout.

In general, IC50 refers to the point on the concentration scale where inhibition reaches its midpoint. A lower IC50 goes with inhibition by little substance.

Source of the values: patent US20250115558A1, “PYRIDAZINE DERIVATIVES AND RELATED USES” (NodThera Limited, priority 2023, published 2025).
